Measurements: patent publication US9464093B2, “Substituted imidazo[4',5':4,5]cyclopenta[1,2-e]pyrrolo[1,2-a]pyrazines and oxazolo[4',5':4,5]cyclopenta[1,2-e]pyrrolo[1,2-a]pyrazines for treating brain cancer” (Mayo Foundation for Medical Education and Research, priority 2012, dated 2016)
Entries after “also recorded” stand apart in the source; their conditions may differ.

What was measured:
[1] = test system: OCI-LY10 B lymphoma cells; experiment: OCI-LY10 orthotopic murine CNS lymphoma model; assay type: in vivo; settings: for Median Survival (Day) CNS Lymphoma (OCI-LY10): control 35; for survival (Kaplan-Meier) vs control, OCI-LY10 model / tumor growth (BLI) vs control, OCI-LY10 model: all treatment groups (2.5 or 5 mg/kg i.p. daily for 4 days); for tolerability, OCI-LY10 model: both dose levels (2.5 and 5 mg/kg)
Protocol: Female athymic mice (8-10 weeks old and weighing 20-25 g at the beginning of the study) were purchased from Harlan laboratories (Indianapolis, Ind.). They were housed in a temperature-controlled sterilized room (23±2° C.) with a 12-h light/dark cycle and free access to food and water throughout the study.
Murine brain tumor models were created by intracerebral injection of luciferase-transfected cancer cells in athymic mice under anesthesia using a stereotactic platform. For murine model for CNS lymphoma, 1×10^5 OCI-LY10 B lymphoma cells were used. For murine model for metastatic breast cancer of the brain (MBCB), 1×10^5 MB-468 triple-negative breast cancer cells were used. For murine model for glioblastoma multiforme (GBM), 1.75×10^5 U87 cells were used. Eight-week-old athymic mice underwent a minimum 7-day acclimation/quarantine prior to surgery. Surgery was performed in a laminar flow hood under sterile conditions. Tylenol 300 mg/kg PO was given for analgesia 48 hours before the surgery and continuing 48 hours postoperatively. Anesthesia was achieved by inhalation of 1-2% isoflurane. After the mouse became well anesthetized, it was placed in the Kopf stereotactic instrument. A small amount of BNP antibiotic cream (a mixture of Bacitracin, Neomycin and Polymyxin) was smeared on its eyes to prevent infection and corneal damage during surgery. A strip of soft fabric was placed over the mouse's body and tail to prevent excessive heat loss during surgery. The scalp area was cleaned with a 2% solution of Betadine and dried with cotton tipped applicator. A midline sagittal incision was made in the scalp. A small burr hole was drilled in the left skull with a surgical drill (Kopf) or a Dremel drill according to the coordinates (AP: 0.5 mm, LM: 2.5 mm) as determined by reference to the mouse brain atlas by Franklin and Paxinos. The dura mater was surgically exposed, and a 10 μl Hamilton syringe with a 26S-gauge beveled needle was lowered into the left cerebral hemisphere up to a depth of 3 mm and 5 μl of tumor cells were slowly infused (0.5 μl/min). The needle was left in place for 5 minutes to prevent reflux and then was slowly removed. The skin was closed with wound clips. The mice recovered from anesthesia and surgery in a warm environment and were not returned to their cages until motor activity returned. Cages were placed on top of a heating pad to minimize the loss of body heat during the recovery. The mice were monitored post-operatively at least twice a day for 5 days or until recovery was complete.
BLI was used to assess the impact of the treatments on the brain tumor growth. After intracerebral injection of cancer cells, all the mice were subjected to bioluminesence imaging (BLI) twice a week starting at day-4 post-intracerebral injection to monitor the real-time in vivo tumor growth. BLI was conducted using a Xenogen Lumina optical imaging system (Caliper Life Sciences, Hopkinton, Mass.). Mice were anesthetized with isofluorane before intraperitoneal injections of luciferin at a dose of 150 mg/kg, providing a saturating substrate concentration for luciferase enzyme. Peak luminescent signals were recorded 10 minutes after luciferin injection. Regions of interest encompassing the intracranial area of signal were defined using Living Image software (Xenogen, Alameda, Calif.), and the total photons/s/steradian/cm2 was recorded.
Five mice each were assigned to one of seven treatment groups or one vehicle control group for all three brain tumor models. Mice in experimental groups received either 2.5 mg/kg or 5 mg/kg of AA, CEAA, or DCEAA by intraperitoneal route daily for 4 days. For CAA, only 2.5 mg/Kg by intraperitoneal route daily for 4 days was used. The control group received DMSO by intraperitoneal route for 4 days. The end point for the survival analysis was the development of limb paralysis. Animals were checked at least twice per day. Animals that reached the end point were sacrificed by CO2 anesthesia. […]

[2] = CNS pharmacokinetic analysis in rats (microdialysis, CE-UV); settings: male, Sprague-Dawley, rat, in vivo, iv, 2.5 mg/kg
Protocol: Male Sprague-Dawley rats (Harlan, Indianapolis, Ind., USA) were used in this CNS pharmacokinetic study on Agelastatin A and its three analogues (CAA, CEAA, and DCEAA). Six rats were used for each drug. The rats were approximately 2 months old and weighed 300±25 g at the beginning of the study. All rats were housed in a temperature-controlled room (23±2° C.) with a 12:12 light dark cycle (lights off at 6:00 pm). Purina 5001 Rodent Chow and tap water were available ad libitum at all times.
Rats were anesthetized with gasiform isoflurane (1% isoflurane in a mixture of 20% oxygen and 80% nitrogen gas) and immobilized in a stereotaxic frame (KOPF Instruments, Tujunga, Calif.). Anesthesia was maintained during the entire procedure. The guide cannula (CMA Microdialysis Inc., Acton, Mass.) was stereotactically implanted into the lateral ventricle (AP −0.9, L 1.6, V 3.4, relative to bregma and skull), and then secured to the skull by screws and dental cement. Following surgery, each rat was housed individually with food and water ad libitum for 3 days for recovery from cannulation surgery. Microdialysis experiments were carried out on conscious, freely moving rats. On the day of the experiment, the stylet in the guide cannula was replaced with the microdialysis probe (CMA/11 with 4 mm membrane, CMA Microdialysis Inc., Acton, Mass.) and a vascular microdialysis probe (CMA/20 with 4 mm membrane, CMA Microdialysis Inc, Acton, Mass.)) was implanted into a jugular vein. The probes had inlet tubes connected to syringes to deliver artificial cerebrospinal fluid (146 mM NaCl, 1.2 mM CaCl2, 3 mM KCl, 1 mM MgCl2, 1.9 mM Na2HPO4, 0.1 mM NaH2PO4, pH 7.4) into the ventricle and Dulbecco's phosphate-buffered saline (D-PBS) into the blood at 0.5 μl/min flow rate. […]
The drug concentration in the microdialysate was measured by CE-UV (Agilent 3D CE). […] The absorbance from the drug was detected with UV at 280 nm. […]
Two-way repeated measures ANOVA followed by Tukey's test was used. […] CNS penetration is determined as the ratio of CSF and blood area under the curve (AUC).

[3] = 2.5 mg/kg intraperitoneal daily for 4 days
[4] = 5 mg/kg intraperitoneal daily for 4 days

Structure (SMILES)	weight loss, OCI-LY10 model ([1]; 2.5 mg/kg)	Median Survival (Day) CNS Lymphoma (OCI-LY10) [1, 3]	survival (Kaplan-Meier) vs control, OCI-LY10 model [1]	tumor growth (BLI) vs control, OCI-LY10 model [1]	Kp [2]	Median Survival (Day) CNS Lymphoma (OCI-LY10) [1, 4]	tolerability, OCI-LY10 model [1]	weight loss, OCI-LY10 model ([1]; 5 mg/kg dose level)
CN1C(=O)N[C@H]2[C@@H]3NC(=O)c4ccc(Cl)n4[C@@H]3C[C@]21O [CAA, chloroagelastatin A]	Some weight loss	49 days	significantly prolonged survival; also recorded: prolongation of survival	significantly decreased tumor growth; also recorded: significantly slower	0.16			
CCN1C(=O)N[C@H]2[C@@H]3NC(=O)c4cc(Cl)c(Cl)n4[C@@H]3C[C@]21O [DCEAA, dichloroethylagelastatin A]		60 days	significantly prolonged survival; also recorded: prolongation of survival	significantly decreased tumor growth; also recorded: significantly slower	0.307	69 days	well tolerated	
CCN1C(=O)N[C@H]2[C@@H]3NC(=O)c4ccc(Cl)n4[C@@H]3C[C@]21O [CEAA, chloroethylagelastatin A]		57 days	significantly prolonged survival; also recorded: prolongation of survival	significantly decreased tumor growth; also recorded: significantly slower	0.27	65 days	well tolerated	
CN1C(=O)N[C@H]2[C@@H]3NC(=O)c4ccc(Br)n4[C@@H]3C[C@]21O [AA, agelastatin A, reference compound]		48.5 days	significantly prolonged survival; also recorded: prolongation of survival	significantly decreased tumor growth; also recorded: significantly slower		46 days		Some weight loss
